{"source": "the supplement of paper PMC10307832", "experiment_in_all_cases": "relative viability (nuclei count vs DMSO), 5 days (fraction); higher = more cells survive", "key": {"Masitinib + Crizotinib": {"compound": "Cc1ccc(NC(=O)c2ccc(CN3CCN(C)CC3)cc2)cc1Nc1nc(-c2cccnc2)cs1 [Masitinib] + C[C@@H](Oc1cc(-c2cnn(C3CCNCC3)c2)cnc1N)c1c(Cl)ccc(F)c1Cl [Crizotinib] (partner 1 µM)", "how_it_was_run": "(§1)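 Relative viability divides the nuclei count in treated wells by that in vehicle wells. Lung cancer cell lines were seeded in 1536-well plates, dosed by pin tool the next day, and fixed and stained after 5 days in one step with final 0.05% Triton X-100, 1% formaldehyde and 1 ug/ml Hoechst. Dosing was a single drug or a fixed anchor-drug dose plus five library-drug doses (not always all listed) in √10 steps, and values are medians of duplicate plates imaged at 4×.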"}, "[1]": {"compound": "CC1=CC(=CC=C1)NC2=NC(=CS2)C3=CC=NC=C3 + Cc1cc(Nc2cc(N3CCN(C)CC3)nc(Sc3ccc(NC(=O)C4CC4)cc3)n2)n[nH]1 [Tozasertib] (partner 0.1 µM)", "how_it_was_run": "as §1"}, "Masitinib + Bortezomib": {"compound": "Cc1ccc(NC(=O)c2ccc(CN3CCN(C)CC3)cc2)cc1Nc1nc(-c2cccnc2)cs1 [Masitinib] + CC(C)C[C@H](NC(=O)[C@H](Cc1ccccc1)NC(=O)c1cnccn1)B(O)O [Bortezomib] (partner 0.002 µM)", "how_it_was_run": "as §1"}, "[2]": {"compound": "CC1=CC(=CC=C1)NC2=NC(=CS2)C3=CC=NC=C3 + COc1cc2c(Oc3ccc(NC(=O)C4(C(=O)Nc5ccc(F)cc5)CC4)cc3F)ccnc2cc1OCCCN1CCOCC1 [Foretinib] (partner 0.25 µM)", "how_it_was_run": "as §1"}}}
{"cell line": "UMC-11", "values": [{"measurement": "relative viability", "setting": "Masitinib + Crizotinib; first compound 0.01 µM", "value": 0.467}, {"measurement": "relative viability", "setting": "Masitinib + Crizotinib; first compound 0.03162 µM", "value": 0.677}, {"measurement": "relative viability", "setting": "Masitinib + Crizotinib; first compound 0.1 µM", "value": 0.706}, {"measurement": "relative viability", "setting": "Masitinib + Crizotinib; first compound 0.3162 µM", "value": 0.571}, {"measurement": "relative viability", "setting": "Masitinib + Crizotinib; first compound 1 µM", "value": 0.691}, {"measurement": "relative viability", "setting": "[1]; first compound 0.08 µM", "value": 0.219}, {"measurement": "relative viability", "setting": "[1]; first compound 0.253 µM", "value": 0.206}, {"measurement": "relative viability", "setting": "[1]; first compound 0.8 µM", "value": 0.193}, {"measurement": "relative viability", "setting": "[1]; first compound 2.53 µM", "value": 0.185}, {"measurement": "relative viability", "setting": "[1]; first compound 8 µM", "value": 0.224}, {"measurement": "relative viability", "setting": "Masitinib + Bortezomib; first compound 0.01 µM", "value": 0.793}, {"measurement": "relative viability", "setting": "Masitinib + Bortezomib; first compound 0.03162 µM", "value": 0.743}, {"measurement": "relative viability", "setting": "Masitinib + Bortezomib; first compound 0.1 µM", "value": 0.79}, {"measurement": "relative viability", "setting": "Masitinib + Bortezomib; first compound 0.3162 µM", "value": 1.03}, {"measurement": "relative viability", "setting": "Masitinib + Bortezomib; first compound 1 µM", "value": 0.714}, {"measurement": "relative viability", "setting": "[2]; first compound 0.08 µM", "value": 1.04}, {"measurement": "relative viability", "setting": "[2]; first compound 0.253 µM", "value": 1.04}, {"measurement": "relative viability", "setting": "[2]; first compound 0.8 µM", "value": 1.02}, {"measurement": "relative viability", "setting": "[2]; first compound 2.53 µM", "value": 1.15}, {"measurement": "relative viability", "setting": "[2]; first compound 8 µM", "value": 1.17}]}
